Entries after “also recorded” stand apart in the source; their conditions may differ.
How the values were obtained:
[1] = tested on: primary rat cortical neurons (axonal AcTub staining); assay type: cell-based; details: 1 μM compound; for AcTub staining and axonal processes upon co-addition with okadaic acid: +OA (15 nM, 8 hours); for axonal acetyl-tubulin staining in the absence of OA: relative to vehicle
HeLa cells = assay: Cytotoxicity in rapidly dividing HeLa cells; assay type: cell-based; details: values in Supporting Information
QBI293 cells = assay: Cytotoxicity in rapidly dividing QBI293 cells; assay type: cell-based; details: values in Supporting Information
[2] = tested on: primary mouse cortical neurons (AcTub levels); assay: AcTub ELISA in primary mouse cortical neurons treated with okadaic acid; assay type: cell-based; details: 10 μM (higher concentration)
[3] = Brain and plasma pharmacokinetics after i.p. dosing; assay type: in vivo; details: CD1 mice

SMILES | AcTub staining and axonal processes upon co-addition with okadaic acid [1] | axonal acetyl-tubulin staining in the absence of OA [1] | cytotoxicity IC50, side-by-side comparison of enantiomers (HeLa cells) | cytotoxicity IC50, side-by-side comparison of enantiomers (QBI293 cells) | AcTub levels in neuron homogenates in the presence of OA [2] | metabolic stability from plasma PK compared with lead compound 3 ([3]; i.p. dosing, compared to 3) | clearance compared to 3 ([3]; i.p. injection) | plasma half-life compared to 3 ([3]; i.p. injection)
CC(C)[C@@H](C)Nc1c(-c2c(F)cc(F)cc2F)c(Cl)nc2ncnn12 [Compound 3, reference compound] | normalization of AcTub staining and axonal processes | increased axonal acetyl-tubulin staining | – | – | – | – | – | –
CC(C)[C@@H](Nc1c(-c2c(F)cc(F)cc2F)c(Cl)nc2ncnn12)C(F)(F)F [Compound 46, (R)-5-Chloro-N-(1,1,1-trifluoro-3-methylbutan-2-yl)-6-(2,4,6-trifluorophenyl)-[1,2,4]triazolo[1,5-a]pyrimidin-7-amine] | – | – | did not reveal significant differences in IC50 values | did not reveal significant differences in IC50 values | – | – | – | –
CC(C)[C@H](Nc1c(-c2c(F)cc(F)cc2F)c(Cl)nc2ncnn12)C(F)(F)F [Compound 47, (S)-5-Chloro-N-(1,1,1-trifluoro-3-methylbutan-2-yl)-6-(2,4,6-trifluorophenyl)-[1,2,4]triazolo[1,5-a]pyrimidin-7-amine] | – | – | did not reveal significant differences in IC50 values | did not reveal significant differences in IC50 values | – | – | – | –
C[C@@H](Nc1c(-c2c(F)cc(C#N)cc2F)c(Cl)nc2ncnn12)C(C)(C)C [Compound 69, (R)-4-(5-Chloro-7-((3,3-dimethylbutan-2-yl)amino)-[1,2,4]triazolo[1,5-a]pyrimidin-6-yl)-3,5-difluorobenzonitrile] | protects the MT network from okadaic acid-induced collapse; also recorded: normalization of AcTub staining and axonal processes | increased axonal acetyl-tubulin staining | – | – | AcTub levels comparable to those in neurons without OA treatment | greater metabolic stability | reduced clearance | increased plasma half-life

From paper PMC8569887 (Journal of medicinal chemistry, 2021)
